Laboratory results taken from publication PMC3495945, “Org 214007-0: A Novel Non-Steroidal Selective Glucocorticoid Receptor Modulator with Full Anti-Inflammatory Properties and Improved Therapeutic Index” (PLoS ONE, 2012).

Key:
[1] = Mouse fasting blood glucose; assay type: in vivo; conditions: oral daily 28 days; prednisolone 0.5 or 10 mg/kg/day, Org 214007-0 0.17 or 1.5 mg/kg/day; 9 hours fasting
Procedure: Eighteen hours after the last oral treatment and 9 hours after start of starvation, blood samples were taken from the tail vein and directly used for glucose measurements using “One touch Ultra” glucose meter from Lifescan EuroFlash (Lifescan Benelux Beerse, Belgium). The mouse MIDA study was performed as described previously by van Dijk et al., [52]. […] On the third day, mice were cannulated in the right jugular vein. After 7 days of treatment, mice were placed in small Plexiglas cages, which allowed collection of blood samples frequently in freely moving mice. […] During the experiment blood glucose was measured and blood spots for GCMS measurements were collected from tail tips just before the start of the infusion and at hourly intervals. […] Glucose and paracetamol-glucuronic acid (Par-GLcUa) were extracted from blood spot and urine filter papers, respectively, derivatised, and measured by GC-MS, essentially as described previously, [52]. […] From isotope dilution and infusion rates, the flux rates of the following metabolic pathways could be calculated: 1) de novo synthesis of G6P, 2) glucokinase, 3) glucose-6-phosphatase, 4) glycogenolysis, and 5) glycogen synthesis. […]

[2] = test system: coronary artery smooth muscle cells; test: BioMAP assay CASM3C; assay type: cell-based, human; conditions: 1 μM, prednisolone = 100%
Procedure: Next, effects of Org 214007-0 on the cytokine release by primary human whole blood cells treated with either LPS or anti-CD28/PMA were tested. […] These assays make use of different types of primary human cells, in this case coronary artery smooth muscle cells and neonatal foreskin fibroblasts, in an inflammatory environment, [28]. […] When all repressed and induced proteins are taken into account, a relative TI value for Org 214007-0 could be deduced of 1.7 in coronary artery smooth muscle cells and of 2.2 in neonatal foreskin fiboblasts.

[3] = biological target: T1, GR (Homo sapiens, UniProt P04150); test: U2OS GR.G9 IFNγ/TNFα-induced MCP-1 release (repression); assay type: cell-based; set-up: expressed in transfected cells; host or cells: U2OS (U2OS GR.G9); conditions: for Max. eff., repression of MCP-1 release: IFNγ/TNFα, relative to prednisolone (100%)
T1 sequence (P04150 1-777): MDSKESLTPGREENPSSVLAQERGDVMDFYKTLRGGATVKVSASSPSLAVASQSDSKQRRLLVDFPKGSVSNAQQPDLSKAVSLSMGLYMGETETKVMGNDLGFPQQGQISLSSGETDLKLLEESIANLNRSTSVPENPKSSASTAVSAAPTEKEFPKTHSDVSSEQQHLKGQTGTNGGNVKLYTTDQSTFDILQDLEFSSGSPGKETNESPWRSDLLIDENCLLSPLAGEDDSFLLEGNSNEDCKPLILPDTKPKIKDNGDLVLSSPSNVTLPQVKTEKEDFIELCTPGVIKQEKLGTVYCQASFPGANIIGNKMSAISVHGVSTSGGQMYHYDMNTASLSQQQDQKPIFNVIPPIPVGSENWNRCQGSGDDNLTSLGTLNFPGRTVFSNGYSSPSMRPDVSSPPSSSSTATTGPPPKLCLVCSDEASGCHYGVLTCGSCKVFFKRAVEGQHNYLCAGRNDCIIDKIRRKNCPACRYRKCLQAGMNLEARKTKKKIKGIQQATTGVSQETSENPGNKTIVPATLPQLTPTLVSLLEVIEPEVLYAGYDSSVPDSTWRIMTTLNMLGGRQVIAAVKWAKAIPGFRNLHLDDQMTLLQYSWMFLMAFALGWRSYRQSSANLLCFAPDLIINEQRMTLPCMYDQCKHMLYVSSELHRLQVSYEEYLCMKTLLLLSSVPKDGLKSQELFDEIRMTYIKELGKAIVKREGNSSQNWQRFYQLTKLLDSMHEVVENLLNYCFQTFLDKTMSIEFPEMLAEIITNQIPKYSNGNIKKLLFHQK
Procedure: To determine the repressive activity of GR ligands, cell line U2OS GR.G9, the human osteoblastic cell line U2OS, stably transfected with human GR, was used. Cells (10^4 cells/well) were incubated in 384-wells plates, in the presence of 50 ng/ml TNFα (R&D systems)/100 ng/ml IFNγ (Peprotech) and compound, for 18 hours. Hereafter, a mixture of two different antibodies to hMCP-1, one Eu-labeled and one APC-labeled, were added. One hour later the time-resolved fluorometric resonance energy transfer (TR-FRET) signal was measured. (for more detailed information see Supportive Information) (SI text).
U2OS GR.G9 cells (10^4 cells/well) in Dulbecco's MEM / HAM F12 medium supplemented with 5% charcoal treated bovine calf serum (Hyclone) (v/v) and Penicillin (10 U/ml) -Streptomycin (10 μg/ml) were incubated in 384-wells plates, in the presence of 50 ng/ml TNFα (R&D systems) / 100 ng/ml IFNγ (Peprotech) and compound, for 18 hours in a humidified atmosphere at 37°C under 6.5% CO2. Hereafter, a mixture of 2.2 nM anti-hMCP-1 labeled with fluorescent donor Europium (Eu) and 16.6 nM anti-hMCP-1 labeled with fluorescent acceptor Allophycocyanin (APC) was added to each well and left at roomtemperature for 1 hour. Finally, the time-resolved fluorometric resonance energy transfer (TR-FRET) signal was measured with the Victor^2TM V, 1420 Multilabel Counter (Wallac). Using 4-parameter curve fitting, IC50 values for the compounds were determined.

SMILES | fasting blood glucose levels vs vehicle [1] | Max. eff., induction of serum amyloid A (SAA) [2] [%] | IC50 ([3]; IFNγ (100 ng/ml)/TNFα (50 ng/ml), 18 hours) [pM] | Max. eff., repression of MCP-1 release [3] | Max. eff., repression of MCP-1 release ([3]; listed as Org)
Cc1nnsc1C(=O)N[C@H]1CCN2c3ccc(C#N)cc3[C@@H](C)c3ccccc3[C@@H]2C1 [Org 214007-0] | not affected | 58 | 360 | 81% | 81 (±16) %
C[C@]12C=CC(=O)C=C1CC[C@@H]1[C@@H]2[C@@H](O)C[C@@]2(C)[C@H]1CC[C@]2(O)C(=O)CO [prednisolone, reference compound] | significantly elevated | 100 | – | 100 (±9.6) % | –
